# Experimental data reported in article PMC10111022, “Comparison of pharmacological inhibitors of lysine-specific demethylase 1 in glioblastoma stem cells reveals inhibitor-specific efficacy profiles” (Frontiers in Neurology, 2023).
# How the values were obtained:
# MDA-GSC 7–11 = assay: Cell viability dose response (IC50), MDA-GSC 7–11; type: cell-based; conditions: Homo sapiens, mean of three independent experiments
# Description: (§1) MDA-GSCs were plated at 50,000 cells/well into 12-well plates at and allowed to grow for 5 days until neurospheres were formed. The cells were then treated with either TCP, GSK-LSD1, or RN-1 at various concentrations for 5 days. Next, the cells were collected and neurospheres were dissociated with Accutase (BioLegend; San Diego, CA). Cell viability was determined using a trypan dye exclusion assay and read with the Vi-Cell XR Cell Viability Analyzer (Beckman Coulter; Brea, CA). NHAs were plated at 50,000 cells/well into 12-well plates and allowed to adhere overnight. The following day, NHAs were treated with the LSD1 inhibitors. After 5 days, the cells were detached using TrypLE and assessed with the trypan blue dye exclusion assay.
# (§2) The alamarBlue cell viability (Bio-Rad; Hercules, CA) was performed on the MDA-GSCs according to the manufacturer’s protocol. The cells were plated at 5,000 cell/well into a 96-well plate and allowed to grow for 5 days. After 5 days, the alamarBlue reagent was added and fluorescence was measured with the Synergy 2 (BioTek Instruments; Winooski, VT) plate reader according to the manufacturer’s protocol.
# MDA-GSC 23 = assay: Cell viability dose response (IC50), MDA-GSC 23; type: cell-based; conditions: Homo sapiens, mean of three independent experiments
# Description: as §1, §2
# MDA-GSC 8–11 = assay: Cell viability dose response (IC50), MDA-GSC 8–11; type: cell-based; conditions: Homo sapiens, mean of three independent experiments
# Description: as §1, §2
# MDA-GSC lines = assay: Cell proliferation of MDA-GSCs tracked over 5 days; type: cell-based, Human; conditions: 400 μM, after 5 days; all MDA-GSC lines apart from MDA-GSC311
# Description: as §2
# Figure 3 Effects of GSK-LSD1 on GSCs cell proliferation and neurosphere formation. (A–I) Cell proliferation of MDA-GSCs was tracked over 5 days after treatment with GSK-LSD1 at 400 μM. Day five data was analyzed with a student’s t-test. ns = p > 0.05, *p ≤ 0.05, **p ≤ 0.01, ***p ≤ 0.001, ****p ≤ 0.0001. (J) Bar graphs showing the number of neurospheres formed by MDA-GSCs after treatment with GSK-LSD1. Grouped data was analyzed using a two-way ANOVA with the Šídák multiple comparisons test. ns = p > 0.05, ***p ≤ 0.001, ****p ≤ 0.0001.
# [1] = Complete blood count at day 50 in xenograft mice; type: in vivo, athymic nude mice
# Description: Once confirmation of intracranial tumor engraftment at 7 days post-engraftment, the mice were equally randomized into groups to receive either GSK-LSD1 or the vehicle control. The mice received GSK-LSD1 1 mg/kg diluted in DMSO and PBS (5 and 95%, respectively) via intraperitoneal injection (200 μL/mouse) while the control mice received the untreated vehicle in parallel. In accordance with the approved IACUC protocol (No: 638-RN03) at MD Anderson Cancer Center, treatment continued until the mice succumbed to tumor burden and were found in a moribund condition as determined by neurological impairment (hydrocephalus, seizures, inactivity, and/or ataxia) or morbidity (hunched posture or weight loss). At this time mice were euthanized by both carbon dioxide exposure and cervical dislocation. Flow cytometric characterization of immune cell subsets was carried out in blood samples obtained from mice (four control mice and six GSK-LSD1 mice) in each group at day 50 via cardiac puncture and the sample was processed using Ficoll (GE Healthcare; Chicago, IL) centrifugation to collect the peripheral blood mononuclear cells (PBMCs). Next, PBMCs were stained with the Ghost Dye Violet (Tonbo; San Diego, CA) and then incubated with antibodies at 4°C for 25 min before analysis. The antibodies anti-NKG2D APC (Biolegend #320807), CD16-PE-Cy7 (ThermoFisher #25–0168-42), CD56-PE (BD Biosciences #345812), anti-CD3-FITC (Biolegend; #100305), CD4-PerCP (ThermoFisher #MHCD0431), anti-CD8-ACP-Cy7 (Biolegend #344713), and anti-SLAMF7-PE (eBioscience #12–2,229-42) were used in concentrations recommended per manufacturer’s instruction. Samples were washed and resuspended in FACS buffer for analysis on a Fortessa flow cytometer (BD Biosciences; Haryana, India).
# Given the effect on tumor regression required almost 2 months of treatment, we sought to determine if any hematological toxicities were present from the prolonged exposure to LSD1 inhibition. At day 50, a subset of mice from each group were sacrificed and blood was collected for evaluation with a Complete Blood Count (CBC) to compare different populations of blood cells. […] However, the platelet count in the GSK-LSD1 receiving mice is higher compared to the control and may be secondary to the underlying tumor burden (Figure 5F). The WBC differential further confirmed the absence of hematological toxicity with no difference between the GSK-LSD1 and the control group in any of the individual cell types (Figure 5G). […] In parallel, the peripheral blood mononuclear cells (PBMCs) were also isolated and probed to assess the effect of GSK-LSD1. Prior studies of LSD1 inhibition via pharmacological inhibitors prompted the assessment of GSK-LSD1 effect on different subpopulations of natural killer (NK) cells and T-cells ([26], [30]).
# brain tissue = assay: qPCR of resistance-related genes in brain tissue of treated xenograft mouse; type: in vivo; conditions: treated mouse vs control mouse after succumbing to tumor burden
# Description: Total RNA was extracted using RNeasy Plus Mini Kit (Qiagen; Hilden, Germany) following the manufacturer’s protocol. cDNA was synthesized with the iScript cDNA synthesis kit (Bio-Rad; Hercules, CA), qPCR was performed using Forget-Me-Not EvaGreen qPCR kit (Biotium; Fremont, CA), and samples were analyzed with the LightCycler96 (Roche; Basel, Switzerland). Cq values were normalized to PPIA and reported as relative fold change from untreated control.
# We then measured the gene expression of the candidate gene set in brain tissue of a mouse treated with GSK-LSD1 compared to a control mouse after they succumbed to tumor burden. […] Finally, we assessed the presence of this gene set in patient data acquired from TCGA ([17], [18]). In a dataset of glioblastoma patient samples, LSD1 expression has an inverse relationship with the genes that correlate with resistance (Figures 6H,I). We then assessed the correlation between resistance related gene expression and GBM subtypes using TCGA (Figure 6J). From this analysis, we find that the mesenchymal subtype has an increased expression of HKDC1 and RAB3IL1 compared to classical and proneural. […] Overall, our established gene set may predict resistance to LSD1 inhibition and is concordant across in vitro experiments, in vivo studies, and is expressed in a LSD1 dependent manner in GBM patients.
# human T cells = tested on: human T cells; set-up: method as in PMID 32166329; conditions: direct effect on human T cells; cited from earlier work
compound,measurement,setting,value
c1ccc([C@@H]2C[C@H]2NC2CCNCC2)cc1 [GSK-LSD1],IC50,MDA-GSC 7–11,606 µM
same,IC50,MDA-GSC 23,> 750 µM
same,IC50,MDA-GSC 8–11,726 µM
same,effect on MDA-GSC proliferation,MDA-GSC lines,Consistent anti-proliferative effects
same,leukopenia or erythropenia (CBC),"[1]; day 50, 1 mg/kg intraperitoneal, vs untreated mice",no evidence of leukopenia or erythropenia
same,platelet count,"[1]; day 50, compared to the control",higher
same,"WBC differential, individual cell types","[1]; day 50, vs control group",no difference
same,RBC indices,"[1]; day 50, except for red cell distribution width (RDW)",largely demonstrate no effect
same,expression of candidate gene set in brain tissue,brain tissue,"three of the four genes, except for FAM213A, were upregulated"
same,human T cell growth,human T cells,minimally impacted
